Test results taken from PubChem BioAssay AID2060501 (Molecular Pharmacology Branch, DTP, NCI, 2025).
Values joined by “and” are separate entries in the source; they are usually repeats but may differ in a detail not shown here. Identical values can stand only once.

System: 282377-053-R-J1-PDC complex spheroids, viability
Test: Anticancer human tumor 282377-053-R-J1-PDC patient-derived colon adenocarcinoma cell line growth inhibition [GQUAD]
Settings: for viability, T/C: stronger effect = lower value
Excerpt: DNA G-quadruplex Stabilizer Agents in Combinations in Complex Spheroids
A high-throughput screen of multi-cell type tumor spheroids was designed to identify active combinations of DNA G-quadruplex stabilizer agents and targeted small molecules. Complex spheroids include a stromal component modeled by human endothelial cells (HUVEC) and fibroblasts modeled by human mesenchymal stem cells (MSCs). The concentration ranges selected for each drug and investigational agent were based upon clinically achievable concentrations if the clinical Cmax of the agent was known.
Compounds. The drugs and investigational agents: pidnarulex (CX-5461; NSC782164), APTO-253 (NSC789042), BRACO-19 (NSC847499), peposertib (NSC802822), ceralasertib (NSC780249), elimusertib (NSC800525), camonsertib (NSC841442), AZD-1390 (NSC803789), olaparib (NSC753686), talazoparib (NSC767125), ART-558 (NSC835418), sotorasib (NSC818433), MRTX-1133 (NSC836407), SN-38 (NSC673596), topotecan (NSC609699), etoposide (NSC141540), doxorubicin (NSC123127), gemcitabine (NSC613327), 5-fluorouracil (NSC19893), paclitaxel (NSC125973), vemurafenib (NSC761431), panobinostat (NSC761190), R-306465 (JNJ-16241199; NSC773264), adavosertib (NSC754352), TP-3654 (NSC805149), carboplatin (NSC241240), KSQ-4279 (NSC840948), and staurosporine (NSC755774) were obtained from the National Cancer Institute (NCI) Developmental Therapeutics Program Chemical Repository (34). The FDA-approved anticancer drug set is available from the NCI Developmental Therapeutics Program. […] The stock solutions were prepared in dimethyl sulfoxide (DMSO, Sigma-Aldrich, St. Louis, MO, cat. D2650) at 800-fold the tested concentration and stored at -70 degrees C prior to their use. All drugs and investigational agents were tested over a range starting from a high concentration at or near the clinical Cmax and decreasing in half-log increments. If the clinical Cmax for an agent had not been determined, the highest concentration tested was 10 microM.
2.3 Cell Culture. All cells were maintained in an incubator at 37 degrees C and 5% CO2 with 95% humidity. The PDC lines were cultured according to standard operating procedures established by the NCI PDMR. All PDCs were thawed and cultured in Matrigel-coated flasks prepared with a working solution of 1X Ham's F-12 nutrient mix, without supplementation (Invitrogen, cat. 11765054), 100 U/mL penicillin-streptomycin (Invitrogen, cat. 15140122), and 2.5% Matrigel (Corning Inc., cat. 354248) for the first three passages. The 857933-349-R-J2-PDC line was cultured in 6C/Colon 1B media, which includes advanced DMEM/F-12 (Thermo Fisher Scientific, cat. 12634028), 10 mM HEPES (Thermo Fisher Scientific, cat. 15630080), 1X GlutaMAX supplement (Thermo Fisher Scientific, cat. 35050061), 0.1 mg/mL primocin (InvivoGen, cat. ant-pm-2), 10% defined fetal bovine serum, heat inactivated (HyClone Laboratories Inc., cat. SH30070.03HI), 50% L-WRN conditioned media (ATCC, cat. CRL-3276), 1.25 mM N-Acetyl-L-cysteine (Sigma-Aldrich, cat. A9165), 10 mM nicotinamide (Sigma-Aldrich, cat. N0636), 1X B-27 supplement (Thermo Fisher Scientific, cat. 17504044), 1X N-2 supplement (Thermo Fisher Scientific, cat. 17502048), 10 microM Y-27632 dihydrochloride (Tocris Bioscience, cat. 1254), and 50 ng/mL human EGF recombinant protein (Thermo Fisher Scientific, cat. PHG0311). The 485176-168-R4-J1-PDC line was cultured in Panc media, which includes all 6C/Colon 1B media components plus 100 ng/mL human FGF-10 (Thermo Fisher Scientific, cat. 100-26), 500 nM SB-431542 (Selleckchem, cat. S1067), and gastrin (Tocris, cat. 3006).
[…]
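Also: spheroids exposed to compounds for 7 days before readout.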
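For viability, T/C in this document: percent of vehicle DMSO control viability with 100% = untreated-like growth.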

## CC(C)(O)C1CCC(Nc2ccc3ncc(-c4cccc(C(F)(F)F)c4)n3n2)CC1 (stereo unspecified)
Compound 0.0316 µM
  viability, T/C: 95.4% and 108% and 93.2%
Compound 0.1 µM
  viability, T/C: 77.4% and 81.7% and 98.5%
Compound 0.316 µM
  viability, T/C: 107% and 80.8% and 81.9%
Compound 1 µM
  viability, T/C: 96.5% and 87.1% and 71.6%
Compound 3.16 µM
  viability, T/C: 101% and 33.2% and 13.8%
Compound 10 µM
  viability, T/C: 95% and 42.3% and 22.1%
Curve of compound
  IC50: > 10000 nM and 2380 nM and 1590 nM

## CCCS(=O)(=O)Nc1ccc(F)c(C(=O)c2c[nH]c3ncc(-c4ccc(Cl)cc4)cc23)c1F + Cc1cnc(CNC(=O)c2c(=O)c3ccc(N4CCCN(C)CC4)nc3n3c2sc2ccccc23)cn1
Curve of first compound, second compound 0.0316 µM
  IC50: 2280 nM
Curve of first compound, second compound 0.1 µM
  IC50: 1480 nM
Curve of first compound, second compound 0.316 µM
  IC50: 393 nM
Curve of first compound, second compound 1 µM
  IC50: 34.9 nM
Curve of first compound, second compound 3.16 µM
  IC50: < 31.6 nM
Curve of first compound, second compound 10 µM
  IC50: < 31.6 nM
Second compound 0.0316 µM, first compound 0.0316 µM
  viability, T/C: 89.5%
Second compound 0.0316 µM, first compound 0.1 µM
  viability, T/C: 53.1%
Second compound 0.0316 µM, first compound 0.316 µM
  viability, T/C: 72%
Second compound 0.0316 µM, first compound 1 µM
  viability, T/C: 52.7%
Second compound 0.0316 µM, first compound 3.16 µM
  viability, T/C: 54.9%
Second compound 0.0316 µM, first compound 10 µM
  viability, T/C: 11.8%
Second compound 0.1 µM, first compound 0.0316 µM
  viability, T/C: 77.5%
Second compound 0.1 µM, first compound 0.1 µM
  viability, T/C: 63.9%
Second compound 0.1 µM, first compound 0.316 µM
  viability, T/C: 56.6%
Second compound 0.1 µM, first compound 1 µM
  viability, T/C: 55.7%
Second compound 0.1 µM, first compound 3.16 µM
  viability, T/C: 45.4%
Second compound 0.1 µM, first compound 10 µM
  viability, T/C: 11.6%
Second compound 0.316 µM, first compound 0.0316 µM
  viability, T/C: 64.5%
Second compound 0.316 µM, first compound 0.1 µM
  viability, T/C: 57%
Second compound 0.316 µM, first compound 0.316 µM
  viability, T/C: 46.9%
Second compound 0.316 µM, first compound 1 µM
  viability, T/C: 39.5%
Second compound 0.316 µM, first compound 3.16 µM
  viability, T/C: 41.4%
Second compound 0.316 µM, first compound 10 µM
  viability, T/C: 11.3%
Second compound 1 µM, first compound 0.0316 µM
  viability, T/C: 52.6%
Second compound 1 µM, first compound 0.1 µM
  viability, T/C: 44.6%
Second compound 1 µM, first compound 0.316 µM
  viability, T/C: 38.3%
Second compound 1 µM, first compound 1 µM
  viability, T/C: 30.3%
Second compound 1 µM, first compound 3.16 µM
  viability, T/C: 34.4%
Second compound 1 µM, first compound 10 µM
  viability, T/C: 9.31%
Second compound 3.16 µM, first compound 0.0316 µM
  viability, T/C: 39.5%
Second compound 3.16 µM, first compound 0.1 µM
  viability, T/C: 29.4%
Second compound 3.16 µM, first compound 0.316 µM
  viability, T/C: 28.8%
Second compound 3.16 µM, first compound 1 µM
  viability, T/C: 25.9%
Second compound 3.16 µM, first compound 3.16 µM
  viability, T/C: 30.4%
Second compound 3.16 µM, first compound 10 µM
  viability, T/C: 0.11%
Second compound 10 µM, first compound 0.0316 µM
  viability, T/C: 31.3%
Second compound 10 µM, first compound 0.1 µM
  viability, T/C: 31.3%
Second compound 10 µM, first compound 0.316 µM
  viability, T/C: 22.9%
Second compound 10 µM, first compound 1 µM
  viability, T/C: 23.3%
Second compound 10 µM, first compound 3.16 µM
  viability, T/C: 7.59%
Second compound 10 µM, first compound 10 µM
  viability, T/C: 0.33%

## O=c1[nH]cc(F)c(=O)[nH]1
Compound 0.0316 µM
  viability, T/C: 94.9% and 109% and 94.2%
Compound 0.1 µM
  viability, T/C: 107% (2×) and 88.7%
Compound 0.316 µM
  viability, T/C: 107% and 102% and 96.5%
Compound 1 µM
  viability, T/C: 88.8% and 92.9% and 94.9%
Compound 3.16 µM
  viability, T/C: 87.9% and 80.7% and 79.4%
Compound 10 µM
  viability, T/C: 80.8% and 69.7% and 70.6%
Curve of compound
  IC50: > 10000 nM
